Legend:
[1] = system: subjects with symptomatic non-obstructive HCM (nHCM); test: […]-HCM Phase 2 randomized, double-blind, placebo-controlled, concentration-guided study; type: in vivo, human; design: Overall KCCQ Summary Score, mean change / Clinical KCCQ Summary Score, mean change / Overall KCCQ Summary Score / Clinical KCCQ Summary Score: scale not given here; conditions: for LVEF, mean change: Week 16
Description: This is a Phase 2 trial designed to assess the safety and tolerability of a range of exposures over 16 weeks of treatment in subjects with symptomatic, non-obstructive HCM. All study subjects were required to be diagnosed with non-obstructive HCM, with left ventricular wall thickness either ≥15 mm or ≥13 mm with a family history of HCM, LVEF≥55%, NYHA classifications of Class II or III, and NT-proBNP levels of greater than 300 pg/mL at rest. Baseline characteristics, such as age, weight, gender, pathogenic mutation status, background beta blocker use, NYHA classification and exercise capacity were approximately evenly distributed between active and placebo arms.
This double-blind study enrolled 59 individuals with nHCM (Left ventricular outflow tract gradient<30 mmHg; resting or provoked), NYHA Class II or III, and LVEF≥55%. Subjects were randomized 1:1:1 to one of two target plasma drug concentrations (Group 1: ˜200 ng/mL and Group 2: ˜500 ng/mL) or placebo for 16 weeks, followed by an 8-week washout. […] Predefined criteria, including LVEF (LVEF≤45%), guided study drug discontinuation if indicated. Cardiopulmonary exercise testing was performed at baseline and Week 16 to assess the impact on exercise capacity.
Dose adjustments will be based on PK parameters. Assessments include safety, standardized cardiopulmonary exercise testing (CPET) with measurement of peak oxygen consumption, echocardiography to evaluate left ventricular ejection fraction (LVEF) and parameters of diastolic function, symptoms, quality of life, daily step counts, and NT-proBNP at rest and after exercise. In addition, subjects may consent to hypertrophic cardiomyopathy genotyping and pharmacogenetic sampling.
Cardiac Troponin I levels were evaluated on plasma and serum samples of subjects at baseline and at various time points in the trial (Abbott Architect Stat Troponin-I assay (Ref. 2K41)). Cardiac Troponin T levels were evaluated on plasma and serum samples of subjects at baseline and at various time points in the trial (Roche Elecsys Troponin T hs assay) (Ref. 08469873190) performed on a cobas e 801 analyzer). NT-proBNP levels were evaluated on plasma samples using the Roche Elecsys proBNPII assay (Ref. 07027664190) on a cobas e 801 analyzer.
Subjects were randomized via an interactive response system to 3 groups in a 1:1:1 ratio: 2 active treatment groups and 1 matching placebo.
5 mg QD was used as the starting dose for the study. All subjects in the active treatment groups started on 5 mg QD. […] PK modeling was used to guide blinded dose adjustment at the Week 6 visit, based on the plasma concentrations collected at Week 4. Subjects in the placebo group underwent the same assessments in order to preserve the blind. […] Subjects were instructed to take the drug under fasting conditions, at approximately the same time each day, and with 8 ounces of water.
To achieve the target concentration, if a subject's Week 4 concentration was >450 ng/mL, the subject's dose was decreased to 2.5 mg QD; if Week 4 concentration was 110-450 ng/mL, the dose was maintained at 5 mg QD; and if Week 4 concentration was <110 ng/mL, the dose was increased to 10 mg QD.
Subjects were monitored for adverse events (AE), including high blood plasma concentration, systolic dysfunction, QT prolongation, and LVEF decrease. If any of the following thresholds were hit PK 1000 or more, QTcF 500, or LVEF 45%, the subjects were discontinued on drug. Specifically, high blood plasma concentration was defined as blood plasma concentration greater than or equal to 1000 ng/mL; QT prolongation was defined as QTcF greater than or equal to 500 ms; and LVEF shortening was defined as LVEF less than or equal to 45% (including serious adverse event (SAE) for LVEF less than or equal to 30%).
Efficacy and pharmacodynamics assessments were also made. Resting transthoracic echocardiography measurements were taken at Weeks 4, 8, 12 and 16. […]

[2] = system: Yucatan mini-pigs with a heterozygous MYH7 R403Q mutation; test: Chronic MYK-581 in mini-pig genetic model of non-obstructed HCM (cMR imaging, invasive hemodynamics, dobutamine challenge); type: in vivo; conditions: corrected for plasma protein binding and potency differences MYK-581 vs mavacamten
Description: The mini-pigs were treated for at least 12 weeks and were evaluated as shown in Schematic 1 below. […] After ˜14 weeks of treatment, all pigs underwent in vivo cMR imaging for the assessment of LV function and geometry, as well as of myocardial composition via of Late Gadolinium Enhancement (LGE) and T1 mapping techniques including extracellular volume (ECV) assessments. In addition, a subset of animals (MYK: n=6, CTRL: n=5) also underwent terminal invasive hemodynamics assessments, including cardiac output (CO, via thermodilution), load-independent systolic/diastolic function (via LV pressure-volume relationships), and β-adrenergic (β-AR) cardiac reserve (via dobutamine at 5 ug/kg/min IV).
The mini-pig model can be obtained following the method disclosed in a presentation entitled “A Minipig Genetic Model of Hypertrophic Cardiomyopathy Uncovers the Pathophysiological Mechanisms of Disease Evolution”, by E. Green et al., at University of Iowa, Carver College of Medicine.

[3] = Elevated Troponin subgroup, Mean Difference vs placebo
[4] = Elevated Troponin subgroup, mean change from baseline
[5] = Subgroup with Elevated E/e′ at Baseline, Difference mavacamten vs placebo
[6] = Subgroup with Elevated E/e′ at Baseline, pooled, mean change from baseline

CC(C)n1c(=O)cc(N[C@@H](C)c2ccccc2)[nH]c1=O [mavacamten, (S)-3-Isopropyl-6-((1-phenylethyl)amino)pyrimidine-2, 4(1H,3H)-dione]
Composite Functional Endpoint: Met endpoint, either type, % ([1]; Combined Subgroup (elevated cTnI or E/e′ average >14), Pooled): 33%
Composite Functional Endpoint: Met endpoint, either type, % ([1]; Combined Subgroup, Group 1 ~200 ng/mL): (33.3) %
Composite Functional Endpoint: Met endpoint, either type, % ([1]; Combined Subgroup, Group 2 ~500 ng/mL): (33.3) %
Clinical KCCQ Summary Score [1, 3]: 8.8
NYHA Class [1, 3]: −0.3
Peak VO2 [1, 3]: 2.70 mL/min/kg
Serum Troponin I (cTnI) [1, 3]: -0.083 ng/mL
Clinical KCCQ Summary Score [1, 4]: 6.9
NYHA Class [1, 4]: −0.5
Overall KCCQ Summary Score [1, 4]: 6.4
Serum Troponin I (cTnI) [1, 4]: -0.12 ng/mL
Clinical KCCQ Summary Score, mean change ([1]; ITT, Group 1 ~200 ng/mL): 0.11
Lateral e′, mean change ([1]; ITT, Group 1 ~200 ng/mL): 0.34 cm/s
NYHA Class, mean change ([1]; ITT, Group 1 ~200 ng/mL): −0.6
Overall KCCQ Summary Score, mean change ([1]; ITT, Group 1 ~200 ng/mL): 0.35
Peak VO2, mean change ([1]; ITT, Group 1 ~200 ng/mL): 0.36 mL/min/kg
Septal e′, mean change ([1]; ITT, Group 1 ~200 ng/mL): 0.64 cm/s
LVEF, mean change ([1]; ITT, Group 1 ~200 ng/mL): −2.30%
LVEDV, mean change ([1]; ITT, Group 2 ~500 ng/mL): 6.50 mL
NYHA Class, mean change ([1]; ITT, Group 2 ~500 ng/mL): −0.3
Peak VO2, mean change ([1]; ITT, Group 2 ~500 ng/mL): 0.12 mL/min/kg
Septal e′, mean change ([1]; ITT, Group 2 ~500 ng/mL): 1.60 cm/s
Lateral e′, mean change ([1]; ITT, Pooled): 0.94 cm/s
NYHA Class, mean change ([1]; ITT, Pooled): −0.4
Peak VO2, mean change ([1]; ITT, Pooled): 0.22 mL/min/kg
LVEF, mean change ([1]; ITT, Pooled): −4.1%
Clinical KCCQ Summary Score [1, 5]: 4.1
LVEDVi [1, 5]: 3.9 mL/m^2
NYHA Class [1, 5]: 0.0
Overall KCCQ Summary Score [1, 5]: 0.4
Peak VO2 [1, 5]: 1.9 mL/min/kg
cTnI [1, 5]: -0.07 ng/mL
Clinical KCCQ Summary Score [1, 6]: 4.6
LVEDVi [1, 6]: 2.8 mL/m^2
NYHA Class [1, 6]: −0.4
Overall KCCQ Summary Score [1, 6]: 4.7
Peak VO2 [1, 6]: 1.2 mL/min/kg
cTnI [1, 6]: -0.09 ng/mL
Serious adverse events (SAEs), subjects ([1]; subjects receiving mavacamten, placebo 21%): 10%
participants with a decrease in LVEF to ≤45%, % ([1]; weeks 11-12, active treatment): 12.5%
equivalent human plasma concentrations [2]: 50 to 250 ng/mL

— US12616697B2, “Methods of treatment with myosin modulator” (MyoKardia, Inc., priority 2020, dated 2026)
